Experimental findings from US8455510B2 are described below.

The subject of series [1] is human prostate cancer PC-3 xenograft. Nature of the series: PC-3 xenograft on nude mice. The settings on record: 1-5 × 3.5 w; for TV (mm3) d0: baseline.
Series [2] concerns acute graft-versus-host disease (aGVHD). Nature of the series: Acute graft-versus-host disease (aGVHD) mouse model. It is filed as in vivo, C57B/6 mice. Conditions: 1.5 mg/kg/d, intraperitoneal injection, FIG. 15. The procedure: Donator: BABL/C mice; acceptor: C57B/6 mice.
C57B/6(H-2^b) mice, female, 7 weeks old, were used as the acceptor mice to receive 8.5 Gy of total body irradiation in a Gammacell.
After the acceptor mice received irradiation for 4 to 6 hours, the heterogenetic bone marrow transplantation was carried out.
BABL/C(H-2^d) mice, female, 4 weeks old were used as the donator mice. The bone marrow cells in long bone of the mice limbs and the spleen lymphocytes were collected and suspended in a PBS buffer solution respectively by adjusting the cell concentration to 1×10^8.
The two kinds of cells were mixed equivalently to prepare a mixed cell suspension. Each acceptor mouse was intravenously injected with 0.5 ml of the suspension.
Mice were randomly divided into 3 groups with 10 mice in each group. Mice were administered once daily from the first day when the bone marrow transplantation was carried out.
Y-31 group (1.5 mg/kg/d, intraperitoneal injection)
(1) Body weight: weighted once daily;
(2) The survival time of the mice after BMT was recorded.

Series [3] has as its system bovine type II collagen-induced arthritis. The series can be described thus: Bovine type II collagen-induced arthritis. The series is classed as in vivo, DBA/1 mice. Conditions: 1 mg/kg, from 14th day after attack, 3 weeks, FIG. 16, P<0.05.

Consider `CO[C@H]1C[C@@H]2CC[C@@H](C)[C@@](O)(O2)C(=O)C(=O)N2CCCC[C@H]2C(=O)O[C@H]([C@H](C)C[C@@H]2CC[C@@H](O)[C@H](OC)C2)CC(=O)[C@H](C)/C=C(\C)[C@@H](O)[C@@H](OC)C(=O)[C@H](C)C[C@H](C)/C=C/C=C/C=C/1C` [Rapamycin], for which, in series [1] (Table 3, 2.5 mg/kg p.o), the “Body Weight (g) end” value was 21.8 g, the “Body Weight (g) start” value stood at 19.8 g, the RTV is reported as 3.03 ± 1.5 and the “T/C (%)” value was 46.5%. Moreover, in series [1] (Table 3, 2.5 mg/kg p.o), the “TV (mm3) d21” value is on record as 277 ± 98 mm3 and the “TV (mm3) d0” value was 100 ± 39 mm3. Further, in series [1] (Table 3, 5 mg/kg p.o), the “Body Weight (g) end” value came out at 22.2 g, the “Body Weight (g) start” value came out at 22.2 g, the RTV turned out to be 2.0 ± 1.2 and the “T/C (%)” value came out at 30.9%. In addition, in series [1] (Table 3, 5 mg/kg p.o), the “TV (mm3) d21” value came out at 170 ± 88 mm3 and the “TV (mm3) d0” value is given as 96 ± 38 mm3.
With `CO[C@H]1C[C@@H]2CC[C@@H](C)[C@@](O)(O2)C(=O)C(=O)N2CCCC[C@H]2C(=O)O[C@H]([C@H](C)C[C@@H]2CC[C@@H](OC(=O)OCC(O)CO)[C@H](OC)C2)CC(=O)[C@H](C)/C=C(\C)[C@@H](O)[C@@H](OC)C(=O)[C@H](C)C[C@H](C)/C=C/C=C/C=C/1C` (stereo partly drawn) [Y31], in series [2], the “effect on the survival rate of the aGVHD mice” value was “markedly increase the survival rate” and the “effect on the weight loss caused by aGVHD” value is on record as “significantly alleviate the weight loss”. The “effect on the severe degree of CIA (arthritis score)” value in series [3] is listed as “significantly reduce the severe degree of CIA”.
